Experimental data published in PMC12442081, “Combating Fuel Biocontamination: Tailored Antimicrobial Peptides and an Innovative Delivery Strategy” (ACS Applied Bio Materials, 2025).
Where no end group is shown, it is not given here.

How the values were obtained:
[1] = tested on: Bacillus licheniformis (BL) ATCC 14580; assay type: cell-based; details: ATCC 14580
Outline: (§1)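 Peptides were serially diluted and incubated overnight at 37 °C with an equal volume of mid-log bacteria at 5 × 10^5 CFU/mL, previously grown in LB broth. Growth inhibition was read on a plate reader, and mean MIC from triplicates was reported.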

[2] = tested on: Dermacoccus nishinomiyaensis (DN) ATCC 29093; assay type: cell-based
Outline: as §1

[3] = tested on: Kocuria rosea (KR) ATCC 186; assay type: cell-based
Outline: as §1

[4] = tested on: Macrococcus caseolyticus (MC) ATCC 13548; assay type: cell-based
Outline: as §1

[5] = tested on: Micrococcus yunnanensis (MY) ATCC 12698; assay type: cell-based
Outline: as §1

[6] = tested on: Pseudomonas aeruginosa (PA) ATCC 39327; assay type: cell-based; details: ATCC 39327
Outline: as §1

[7] = tested on: Roseomonas mucosa (RM) ATCC BAA-692; assay type: cell-based
Outline: as §1

[8] = tested on: Sphingomonas paucimobilis (SP); assay type: cell-based
Outline: as §1

[9] = tested on: Sheep red blood cells (RBCs); experiment: Hemolysis assay; assay type: cell-based
Method: The RBCs were centrifuged at 1000g for 15 min at 4 °C to remove the buffy coat and washed 3 times with PBS. 100 μL of 4% (v/v) RBC was suspended in PBS and added into sterilized 96-well plates. 100 μL of peptide solution was added to the suspension of RBCs by serial dilution starting from 200 μM to […] and incubated overnight at 37 °C. Sample absorbance at 545 nm was measured to determine hemoglobin release after centrifuging the plate at 600 g for 10 min. The percentage of cell lysis was calculated using the following formula (eq ). , 1 %lysis=OD545(test)−OD545(blank)/OD545(totallysis)−OD545(blank)×100

[10] = HPLC retention time as a function of peptide hydrophobicity; assay type: physicochemical; details: chromatographic, Polaris 5 C18-A reverse phase, 0.1% TFA water / 0.1% TFA acetonitrile gradient, 30 min, 300 μM peptide
Outline: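 Reverse-phase C18 HPLC used water and acetonitrile, each with 0.1% (v/v) TFA, under a constant gradient run for 30 min after injection. Samples were 300 μM peptide in acetonitrile–water (1:4).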

[11] = tested on: Bacillus licheniformis (BL); experiment: Effectiveness of peptides on spiked fuel samples (aqueous layer); assay type: cell-based; parameters: key: (+) =1 (implying peptide activity in fuel environment); (X) = 0 (implying no activity in the desired range, indicated by microbial proliferation); Fuel x = -1(implying no activity in fuel environment); details: initial screening in spiked fuel
Outline: (§2)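 Fuel:BH 1:1 v/v, cells seeded in bottom aqueous phase; peptide at MIC added to aqueous layer; aerobic, 30 °C, 30 d; plating of aqueous + fuel layers d7/14/21/30 for viable counts.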

[12] = tested on: Dermacoccus nishinomiyaensis (DN); experiment: as above; assay type: cell-based; parameters: key: (+) =1 (implying peptide activity in fuel environment); (X) = 0 (implying no activity in the desired range, indicated by microbial proliferation); Fuel x = -1(implying no activity in fuel environment); details: initial screening in spiked fuel
Outline: as §2

Hormoconis resinae (HR) = experiment: as above; assay type: cell-based; parameters: key: (+) =1 (implying peptide activity in fuel environment); (X) = 0 (implying no activity in the desired range, indicated by microbial proliferation); Fuel x = -1(implying no activity in fuel environment); details: initial screening in spiked fuel
Outline: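 Viability read-out: aqueous- and fuel-layer aliquots plated on agar at days 7, 14, 21, 30. Setup: sterile fuel/BH medium 1:1 (v/v), inoculum in aqueous phase, peptide dosed at MIC into aqueous layer, aerobic 30 °C, 30 d.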

Kocuria rosea (KR) = experiment: as above; assay type: cell-based; parameters: key: (+) =1 (implying peptide activity in fuel environment); (X) = 0 (implying no activity in the desired range, indicated by microbial proliferation); Fuel x = -1(implying no activity in fuel environment); details: initial screening in spiked fuel
Outline: as §2

[13] = tested on: Macrococcus caseolyticus (MC); experiment: as above; assay type: cell-based; parameters: key: (+) =1 (implying peptide activity in fuel environment); (X) = 0 (implying no activity in the desired range, indicated by microbial proliferation); Fuel x = -1(implying no activity in fuel environment); details: initial screening in spiked fuel
Outline: as §2

[14] = tested on: Micrococcus yunnanensis (MY); experiment: as above; assay type: cell-based; parameters: key: (+) =1 (implying peptide activity in fuel environment); (X) = 0 (implying no activity in the desired range, indicated by microbial proliferation); Fuel x = -1(implying no activity in fuel environment); details: initial screening in spiked fuel
Outline: as §2

[15] = tested on: Pseudomonas aeruginosa (PA); experiment: as above; assay type: cell-based; parameters: key: (+) =1 (implying peptide activity in fuel environment); (X) = 0 (implying no activity in the desired range, indicated by microbial proliferation); Fuel x = -1(implying no activity in fuel environment); details: initial screening in spiked fuel
Outline: as §2

Roseomonas mucosa (RM) = experiment: as above; assay type: cell-based; parameters: key: (+) =1 (implying peptide activity in fuel environment); (X) = 0 (implying no activity in the desired range, indicated by microbial proliferation); Fuel x = -1(implying no activity in fuel environment); details: initial screening in spiked fuel
Outline: as §2

[16] = tested on: Sphingomonas paucimobilis (SP); experiment: as above; assay type: cell-based; parameters: key: (+) =1 (implying peptide activity in fuel environment); (X) = 0 (implying no activity in the desired range, indicated by microbial proliferation); Fuel x = -1(implying no activity in fuel environment); details: initial screening in spiked fuel
Outline: as §2

[17] = tested on: microbial clusters MY, KR, DN, MC, BL, RM, SP, PA, HR; experiment: Broad-spectrum activity score (in-house scoring matrix); details: sum over 9 microbial clusters: (+) = 1, (X) = 0, Fuel x = -1
Outline: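 Each peptide is scored per microbial cluster from its MIC/efficacy with fuel co-incubation: +1 = active in the fuel environment, 0 = no activity in the desired range (microbial proliferation), −1 = no activity in the fuel environment. The score is built from these per-cluster points.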

## ILPWKWPWWPFRR [P4]
[1]
  MIC: 0.9 µM
[2]
  MIC: 0.9 µM
[3]
  MIC: 0.9 µM
[4]
  MIC: 0.9 µM
[5]
  MIC: 0.9 µM
[6]
  MIC: 7.8 µM
[7]
  MIC: 3.9 µM
[8]
  MIC: 0.9 µM
[9]
  HL50, conc. to reach 50% cell lysis: 10 µM
[10]
  R t, retention time of peptide on HPLC column as a function of peptide hydrophobicity: 12.891 min
[11]
  activity considering MIC value/efficacy upon fuel co-incubation: +
[12]
  activity considering MIC value/efficacy upon fuel co-incubation: +
Hormoconis resinae (HR)
  activity considering MIC value/efficacy upon fuel co-incubation: X
Kocuria rosea (KR)
  activity considering MIC value/efficacy upon fuel co-incubation: +
[13]
  activity considering MIC value/efficacy upon fuel co-incubation: +
[14]
  activity considering MIC value/efficacy upon fuel co-incubation: +
[15]
  activity considering MIC value/efficacy upon fuel co-incubation: X
Roseomonas mucosa (RM)
  activity considering MIC value/efficacy upon fuel co-incubation: +
[16]
  activity considering MIC value/efficacy upon fuel co-incubation: +
[17]
  Score: 7
